Measured values reported in patent US20260325533A1, “CDK INHIBITOR COMPOUNDS” (ALEKSIA THERAPEUTICS, INC., priority 2023, published 2026).
pIC50: −log10 of the molar value. Read-outs that look alike come from different tables or passages of the source. Values belong to the compound of their own block, whether it stands above or below them.

How the values were obtained:
Assay type in all cases: biochemical
[1] = biological target: CDK1/CCNB1 (Homo sapiens, UniProt P06493); experiment: CDK1 homogeneous time-resolved fluorescence (HTRF) kinase assay; conditions: CDK1/CCNB
CDK1/CCNB1, sequence (P06493 whole entry): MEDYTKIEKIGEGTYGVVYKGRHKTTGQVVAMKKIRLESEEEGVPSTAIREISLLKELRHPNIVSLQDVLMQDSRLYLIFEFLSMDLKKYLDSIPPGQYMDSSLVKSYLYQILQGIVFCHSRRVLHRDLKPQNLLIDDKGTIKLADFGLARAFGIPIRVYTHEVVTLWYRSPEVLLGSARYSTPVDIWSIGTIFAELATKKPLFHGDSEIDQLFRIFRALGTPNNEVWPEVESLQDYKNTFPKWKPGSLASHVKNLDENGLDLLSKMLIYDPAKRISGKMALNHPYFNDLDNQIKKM
CDK1/CCNB1, sequence (P14635 whole entry partner): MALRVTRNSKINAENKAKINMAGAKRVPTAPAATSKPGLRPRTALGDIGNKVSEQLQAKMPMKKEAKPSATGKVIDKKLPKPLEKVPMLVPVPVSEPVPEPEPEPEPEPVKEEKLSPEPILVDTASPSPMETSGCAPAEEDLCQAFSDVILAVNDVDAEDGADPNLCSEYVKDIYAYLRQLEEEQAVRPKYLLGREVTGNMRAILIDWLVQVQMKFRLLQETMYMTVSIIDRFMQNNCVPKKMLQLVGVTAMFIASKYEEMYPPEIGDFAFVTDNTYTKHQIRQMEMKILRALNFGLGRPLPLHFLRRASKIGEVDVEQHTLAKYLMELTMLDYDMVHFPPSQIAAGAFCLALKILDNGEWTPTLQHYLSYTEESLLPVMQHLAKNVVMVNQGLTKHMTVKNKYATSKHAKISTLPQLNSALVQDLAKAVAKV
Method in brief: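 Compounds, titrated 11 points in half-log steps typically from 10 μM, were incubated with enzyme for 20 min before ATP (1 mM) and ULight-labelled eIF4E-binding protein 1 peptide (50 nM) started a 60-min reaction at 23 °C. Phosphopeptide was detected by europium-antibody TR-FRET and IC50 values were derived.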

[2] = biological target: CDK4/CCND3 (Homo sapiens, UniProt P11802); experiment: CDK4 homogeneous time-resolved fluorescence (HTRF) kinase assay; conditions: CDK4/CCND
CDK4/CCND3, sequence (P11802 whole entry): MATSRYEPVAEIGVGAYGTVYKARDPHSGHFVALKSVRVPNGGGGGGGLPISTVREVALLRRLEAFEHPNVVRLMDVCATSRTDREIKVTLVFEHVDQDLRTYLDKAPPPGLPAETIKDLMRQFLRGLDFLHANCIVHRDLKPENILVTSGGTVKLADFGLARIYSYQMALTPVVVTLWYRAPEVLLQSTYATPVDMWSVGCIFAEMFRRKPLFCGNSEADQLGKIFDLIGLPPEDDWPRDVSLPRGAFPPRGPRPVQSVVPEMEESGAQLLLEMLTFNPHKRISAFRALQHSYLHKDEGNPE
CDK4/CCND3, sequence (P30281 whole entry partner): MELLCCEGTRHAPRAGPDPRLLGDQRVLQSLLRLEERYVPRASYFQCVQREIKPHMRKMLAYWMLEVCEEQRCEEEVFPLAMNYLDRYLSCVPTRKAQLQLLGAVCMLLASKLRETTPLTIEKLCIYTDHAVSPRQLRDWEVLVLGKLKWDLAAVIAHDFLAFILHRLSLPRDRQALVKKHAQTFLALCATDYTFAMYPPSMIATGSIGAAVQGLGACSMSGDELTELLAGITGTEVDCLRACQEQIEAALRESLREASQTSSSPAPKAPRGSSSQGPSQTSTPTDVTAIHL
Method in brief: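 IC50s derive from Lance 665 nm or 665/615 nm signals in 11-point, half-log dose series (top 10 μM, 1% DMSO). The enzyme, 1.5 nM CDK4/CCND3, phosphorylates 50 nM ULight-4E-BP1 peptide with 1 mM ATP over 60 min at 23 °C.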

[3] = biological target: CDK6/CCND1 (Homo sapiens, UniProt Q00534); experiment: CDK6 homogeneous time-resolved fluorescence (HTRF) kinase assay; conditions: CDK6/CCND
CDK6/CCND1, sequence (Q00534 whole entry): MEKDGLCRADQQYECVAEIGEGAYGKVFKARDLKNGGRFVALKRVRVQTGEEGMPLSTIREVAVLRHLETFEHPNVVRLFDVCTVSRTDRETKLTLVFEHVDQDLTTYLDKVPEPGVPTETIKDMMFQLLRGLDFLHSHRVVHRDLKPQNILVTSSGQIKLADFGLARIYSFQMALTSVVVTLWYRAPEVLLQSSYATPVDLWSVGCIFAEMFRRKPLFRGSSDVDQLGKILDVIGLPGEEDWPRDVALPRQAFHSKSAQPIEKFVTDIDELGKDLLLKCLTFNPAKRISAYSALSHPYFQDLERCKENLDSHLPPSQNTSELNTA
CDK6/CCND1, sequence (P24385 whole entry partner): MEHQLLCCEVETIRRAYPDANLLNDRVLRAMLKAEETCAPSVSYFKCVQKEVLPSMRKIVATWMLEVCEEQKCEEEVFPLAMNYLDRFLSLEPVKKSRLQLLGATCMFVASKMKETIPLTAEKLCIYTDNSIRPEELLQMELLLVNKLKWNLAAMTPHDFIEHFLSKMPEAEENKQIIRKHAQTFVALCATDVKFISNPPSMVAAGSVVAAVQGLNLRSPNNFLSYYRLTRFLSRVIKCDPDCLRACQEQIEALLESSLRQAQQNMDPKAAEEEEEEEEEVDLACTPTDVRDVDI
Method in brief: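 Assay conditions: HEPES buffer containing 10 mM MgCl2, 1 mM EGTA, 2 mM DTT, 0.01% Tween 20; 1 nM CDK6/CCND1, 50 nM peptide substrate, 1 mM ATP. Detection after 60 min reaction used 2 nM europium antibody with 340 nm excitation. Potency fitted from half-log series, 11 points.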

[4] = biological target: CDK2/CCNE1 (Homo sapiens, UniProt P24941); experiment: CDK2 homogeneous time-resolved fluorescence (HTRF) kinase assay; conditions: CDK2/CCNE
Method in brief: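 IC50 derived from 11-point, half-log dilutions (usually top 10 μM) of compound, 1% DMSO. Kinase (3 nM CDK2/CCNE1) was preincubated with compound 20 min, then phosphorylated 50 nM ULight-4E-BP1 peptide at 1 mM ATP for 60 min, 23 °C. Europium-antibody TR-FRET read after EDTA stop.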

[5] = >250 nM, read-out: CDK1/CCNB IC50 >250 nM
[6] = >250 nM, read-out: CDK4/CCND IC50, >250 nM
[7] = >250 nM, 1 mM ATP, read-out: CDK6/CCND IC50, >250 nM
[8] = 25-250 nM, read-out: CDK2/CCNE IC50, 25-250 nM
[9] = x = IC50 <25 nM, read-out: CDK2/CCNE IC50 (<25 nM)
[10] = x = IC50 >250 nM, read-out: CDK1/CCNB IC50 (>250 nM column)
[11] = x = IC50 >250 nM, read-out: CDK4/CCND IC50 (>250 nM column)
[12] = x = IC50 >250 nM, read-out: CDK6/CCND IC50 (>250 nM column)
[13] = 25-250 nM, read-out: CDK4/CCND IC50, 25-250 nM
[14] = 25-250 nM, 1 mM ATP, read-out: CDK6/CCND IC50, 25-250 nM
[15] = <25 nM, read-out: CDK2/CCNE IC50, <25 nM
[16] = >250 nM marked x, read-out: CDK1/CCNB IC50 >250 nM
[17] = 25-250 nM marked x, read-out: CDK4/CCND IC50 25-250 nM
[18] = >250 nM marked x, read-out: CDK6/CCND IC50 >250 nM
[19] = <25 nM, read-out: CDK2/CCNE IC50 <25 nM
[20] = >250 nM marked x, read-out: CDK4/CCND IC50 >250 nM
[21] = 25-250 nM marked x, read-out: CDK2/CCNE IC50 25-250 nM

pIC50 [1, 5]: < 6.60 | pIC50 [2, 6]: < 6.60 | pIC50 [3, 7]: < 6.60 | pIC50 [4, 8]: 6.60 to 7.60
Compound: O=c1ccc(C#Cc2nccc3cnc(Nc4cnc(O)c(N5CCNCC5)c4)cc23)n[nH]1 [Ex 886, 6-((7-((6-hydroxy-5-(piperazin-1-yl)pyridin-3-yl)amino)-2,6-naphthyridin-1-yl)ethynyl)pyridazin-3(2H)-one]

pIC50 ([1]; x = IC50 25-250 nM, read-out: CDK1/CCNB IC50 (25-250 nM)): 6.60 to 7.60 | pIC50 ([2]; x = IC50 <25 nM, read-out: CDK4/CCND IC50 (<25 nM)): > 7.60 | pIC50 ([3]; x = IC50 <25 nM, read-out: CDK6/CCND IC50 (<25 nM)): > 7.60 | pIC50 [4, 9]: > 7.60
Compound: Cc1c(-c2nccc3cnc(Nc4ccc(S(N)(=O)=O)cc4)cc23)ccc2c1cnn2CCO [Ex 673, 4-((5-(1-(2-hydroxyethyl)-4-methyl-1H-indazol-5-yl)-2,6-naphthyridin-3-yl)amino)benzenesulfonamide]

pIC50 [1, 10]: < 6.60 | pIC50 [2, 11]: < 6.60 | pIC50 [3, 12]: < 6.60 | pIC50 [4, 9]: > 7.60
Compound: CS(=O)(=O)c1ccc(Nc2cc3c(C#Cc4cnncc4N)nccc3cn2)cc1 [Ex 537, 5-((5-aminopyridazin-4-yl)ethynyl)-N-(4-(methylsulfonyl)phenyl)-2,6-naphthyridin-3-amine]

pIC50 [1, 5]: < 6.60 | pIC50 [2, 13]: 6.60 to 7.60 | pIC50 [3, 14]: 6.60 to 7.60 | pIC50 [4, 15]: > 7.60
Compound: Cc1c(-c2nccc3cnc(Nc4ccc(S(=O)(=O)Nc5nccn5C)cc4)cc23)ccc2c1cnn2CC(C)(C)O [Ex 867, 4-((5-(1-(2-hydroxy-2-methylpropyl)-4-methyl-1H-indazol-5-yl)-2,6-naphthyridin-3-yl)amino)-N-(1-methyl-1H-imidazol-2-yl)benzenesulfonamide]

pIC50 [1, 5]: < 6.60 | pIC50 [2, 6]: < 6.60 | pIC50 [3, 7]: < 6.60 | pIC50 [4, 15]: > 7.60
Compound: Cc1c(-c2nccc3cnc(Nc4ccc(S(=O)(=O)Nc5nccc(N6CCN(C)CC6)n5)cc4)cc23)ccc2c1cnn2CC(O)(C(F)(F)F)C(F)(F)F [Ex 756, 4-((5-(4-methyl-1-(3,3,3-trifluoro-2-hydroxy-2-(trifluoromethyl)propyl)-1H-indazol-5-yl)-2,6-naphthyridin-3-yl)amino)-N-(4-(4-methylpiperazin-1-yl)pyrimidin-2-yl)benzenesulfonamide]

pIC50 [1, 10]: < 6.60 | pIC50 [2, 11]: < 6.60 | pIC50 [3, 12]: < 6.60 | pIC50 ([4]; x = IC50 25-250 nM, read-out: CDK2/CCNE IC50 (25-250 nM)): 6.60 to 7.60
Compound: COC(=O)N1CCC(C#Cc2nccc3cnc(Nc4ccc(S(C)(=O)=O)cc4)cc23)CC1 [Ex 653, methyl 4-((7-((4-(methylsulfonyl)phenyl)amino)-2,6-naphthyridin-1-yl)ethynyl)piperidine-1-carboxylate]

pIC50 [1, 5]: < 6.60 | pIC50 [2, 6]: < 6.60 | pIC50 [3, 7]: < 6.60 | pIC50 [4, 8]: 6.60 to 7.60
Compound: Cc1c(-c2nccc3cnc(Nc4ccc(NS(=O)(=O)c5ccc(Cl)s5)cc4)cc23)ccc2c1cnn2CC(C)(C)O [Ex 827, 5-chloro-N-(4-((5-(1-(2-hydroxy-2-methylpropyl)-4-methyl-1H-indazol-5-yl)-2,6-naphthyridin-3-yl)amino)phenyl)thiophene-2-sulfonamide]

pIC50 [1, 16]: < 6.60 | pIC50 [2, 17]: 6.60 to 7.60 | pIC50 [3, 18]: < 6.60 | pIC50 [4, 19]: > 7.60
Compound: Cc1c(-c2nccc3cnc(Nc4ccc(S(C)(=O)=O)cc4)cc23)ccc2c1cnn2C [Ex 158, 5-(1,4-dimethyl-1H-indazol-5-yl)-N-(4-(methylsulfonyl)phenyl)-2,6-naphthyridin-3-amine]

pIC50 [1, 5]: < 6.60 | pIC50 [2, 6]: < 6.60 | pIC50 [3, 7]: < 6.60 | pIC50 [4, 8]: 6.60 to 7.60
Compound: Cc1c(-c2nccc3cnc(Nc4ccc(S(C)(=O)=O)c(Br)c4)cc23)ccc2c1cnn2CC(C)(C)O [Ex 749, 1-(5-(7-((3-bromo-4-(methylsulfonyl)phenyl)amino)-2,6-naphthyridin-1-yl)-4-methyl-1H-indazol-1-yl)-2-methylpropan-2-ol]

pIC50 [1, 16]: < 6.60 | pIC50 [2, 20]: < 6.60 | pIC50 [3, 18]: < 6.60 | pIC50 [4, 19]: > 7.60
Compound: O=C1Nc2cc(C#Cc3nccc4cnc(Nc5ccc(S(=O)(=O)CC(F)(F)F)cc5)cc34)ccc2C12CC2 [Ex 282, 6'-((7-((4-((2,2,2-trifluoroethyl)sulfonyl)phenyl)amino)-2,6-naphthyridin-1-yl)ethynyl)spiro[cyclopropane-1,3'-indolin]-2'-one]

pIC50 [1, 16]: < 6.60 | pIC50 [2, 20]: < 6.60 | pIC50 [3, 18]: < 6.60 | pIC50 [4, 19]: > 7.60
Compound: Cc1cc(S(C)(=N)=O)ccc1Nc1cc2c(C#Cc3ccc4c(c3)NC(=O)C43CCC3)nccc2cn1 (single isomer, unassigned) [Ex 332, 6'-((7-((2-methyl-4-(S-methylsulfonimidoyl)phenyl)amino)-2,6-naphthyridin-1-yl)ethynyl)spiro[cyclobutane-1,3'-indolin]-2'-one]

pIC50 [1, 16]: < 6.60 | pIC50 [2, 17]: 6.60 to 7.60 | pIC50 ([3]; 25-250 nM marked x, read-out: CDK6/CCND IC50 25-250 nM): 6.60 to 7.60 | pIC50 [4, 21]: 6.60 to 7.60
Compound: Cc1c(-c2nccc3cnc(Nc4ccc(S(C)(=O)=O)cc4)cc23)ccc2c1cnn2CC1CN(C)C1 [Ex 243, 5-(4-methyl-1-((1-methylazetidin-3-yl)methyl)-1H-indazol-5-yl)-N-(4-(methylsulfonyl)phenyl)-2,6-naphthyridin-3-amine]

pIC50 [1, 5]: < 6.60 | pIC50 [2, 6]: < 6.60 | pIC50 [3, 7]: < 6.60 | pIC50 [4, 8]: 6.60 to 7.60
Compound: CS(=O)(=O)c1ccc(Nc2cc3c(C#Cc4cnc(F)c(F)c4)nccc3cn2)cc1 [Example 852, 5-((5,6-difluoropyridin-3-yl)ethynyl)-N-(4-(methylsulfonyl)phenyl)-2,6-naphthyridin-3-amine]

pIC50 [1, 16]: < 6.60 | pIC50 [2, 20]: < 6.60 | pIC50 [3, 18]: < 6.60 | pIC50 [4, 19]: > 7.60
Compound: Cc1cc(S(C)(=O)=O)ccc1Nc1cc2c(C#Cc3cc4c(cc3F)C(C)(C)C(=O)N4)nccc2cn1 [Ex 342, 5-fluoro-3,3-dimethyl-6-((7-((2-methyl-4-(methylsulfonyl)phenyl)amino)-2,6-naphthyridin-1-yl)ethynyl)indolin-2-one]

pIC50 [1, 16]: < 6.60 | pIC50 [2, 20]: < 6.60 | pIC50 [3, 18]: < 6.60 | pIC50 [4, 21]: 6.60 to 7.60
Compound: C=CCNC(=O)[C@H]1CC[C@H](c2nccc3cnc(Nc4ccc(S(C)(=O)=O)cc4)cc32)CC1 [Ex 224, (1r,4r)-N-allyl-4-(7-((4-(methylsulfonyl)phenyl)amino)-2,6-naphthyridin-1-yl)cyclohexane-1-carboxamide]

pIC50 [1, 5]: < 6.60 | pIC50 [2, 6]: < 6.60 | pIC50 [3, 7]: < 6.60 | pIC50 [4, 15]: > 7.60
Compound: Cc1c(-c2nccc3cnc(Nc4ccc(S(=O)(=O)Nc5ncccn5)cc4)cc23)ccc2c1cnn2CC(O)(C(F)(F)F)C(F)(F)F [Ex 727, 4-((5-(4-methyl-1-(3,3,3-trifluoro-2-hydroxy-2-(trifluoromethyl)propyl)-1H-indazol-5-yl)-2,6-naphthyridin-3-yl)amino)-N-(pyrimidin-2-yl)benzenesulfonamide]

pIC50 ([1]; 25-250 nM, read-out: CDK1/CCNB IC50, 25-250 nM): 6.60 to 7.60 | pIC50 [2, 13]: 6.60 to 7.60 | pIC50 [3, 14]: 6.60 to 7.60 | pIC50 [4, 15]: > 7.60
Compound: Cc1c(-c2nccc3cnc(Nc4ccc(NS(=O)(=O)c5cccnc5)cc4)cc23)ccc2c1cnn2CC(C)(C)O [Ex 839, N-(4-((5-(1-(2-hydroxy-2-methylpropyl)-4-methyl-1H-indazol-5-yl)-2,6-naphthyridin-3-yl)amino)phenyl)pyridine-3-sulfonamide]
